Source: paper PMC4770715, “LIM kinase inhibitors disrupt mitotic microtubule organization and impair tumor cell proliferation” (Oncotarget, 2015)

What was measured:
Test in all cases: biochemical
Set-up in all cases: KINOMEscan active-site competition binding, percent of control (100 = no competition)
Settings in all cases: competition binding, percent control
SRPK2 = SRPK2 (Homo sapiens, UniProt P78362)
BRAF = BRAF (Homo sapiens, UniProt P15056)
HIPK2 = HIPK2 (Homo sapiens, UniProt Q9H2X6)
BRAF(V600E) = BRAF(V600E) (Homo sapiens, UniProt P15056, V600E)
MST2 = target: T1, MST2 (Homo sapiens, UniProt Q13188)
T1 construct: gene STK3

S6K1 = target: T2, S6K1 (Homo sapiens, UniProt P23443)
T2 construct: gene RPS6KB1

EGFR(L858R) = EGFR(L858R) (Homo sapiens, UniProt P00533, L858R)
MLCK = target: T3, MLCK (Homo sapiens, UniProt Q32MK0)
T3 construct: gene MYLK3

[1] = target: T4, ABL1(F317L)-phosphorylated (Homo sapiens, UniProt P00519, F317L)
T4 construct: phosphorylated

PRKR = target: T5, PRKR (Homo sapiens, UniProt P19525)
T5 construct: gene EIF2AK2

SBK1 = SBK1 (Homo sapiens, UniProt Q52WX2)
PIK3CA(C420R) = PIK3CA(C420R) (Homo sapiens, UniProt P42336, C420R)
ROCK1 = ROCK1 (Homo sapiens, UniProt Q13464)
MARK1 = MARK1 (Homo sapiens, UniProt Q9P0L2)
CDK11 = target: T6, CDK11 (Homo sapiens, UniProt Q9BWU1)
T6 construct: gene CDK19

CSNK1G2 = CSNK1G2 (Homo sapiens, UniProt P78368)
MLK1 = target: T7, MLK1 (Homo sapiens, UniProt P80192)
T7 construct: gene MAP3K9

GRK7 = GRK7 (Homo sapiens, UniProt Q8WTQ7)
TIE1 = TIE1 (Homo sapiens, UniProt P35590)
[2] = target: T8, ABL1(F317L)-nonphosphorylated (Homo sapiens, UniProt P00519, F317L)
T8 construct: nonphosphorylated

EPHB1 = EPHB1 (Homo sapiens, UniProt P54762)
TRKB = target: T9, TRKB (Homo sapiens, UniProt Q16620)
T9 construct: gene NTRK2

ICK = target: T10, ICK (Homo sapiens, UniProt Q9UPZ9)
T10 construct: gene CILK1
T10 sequence (Q9UPZ9 whole entry): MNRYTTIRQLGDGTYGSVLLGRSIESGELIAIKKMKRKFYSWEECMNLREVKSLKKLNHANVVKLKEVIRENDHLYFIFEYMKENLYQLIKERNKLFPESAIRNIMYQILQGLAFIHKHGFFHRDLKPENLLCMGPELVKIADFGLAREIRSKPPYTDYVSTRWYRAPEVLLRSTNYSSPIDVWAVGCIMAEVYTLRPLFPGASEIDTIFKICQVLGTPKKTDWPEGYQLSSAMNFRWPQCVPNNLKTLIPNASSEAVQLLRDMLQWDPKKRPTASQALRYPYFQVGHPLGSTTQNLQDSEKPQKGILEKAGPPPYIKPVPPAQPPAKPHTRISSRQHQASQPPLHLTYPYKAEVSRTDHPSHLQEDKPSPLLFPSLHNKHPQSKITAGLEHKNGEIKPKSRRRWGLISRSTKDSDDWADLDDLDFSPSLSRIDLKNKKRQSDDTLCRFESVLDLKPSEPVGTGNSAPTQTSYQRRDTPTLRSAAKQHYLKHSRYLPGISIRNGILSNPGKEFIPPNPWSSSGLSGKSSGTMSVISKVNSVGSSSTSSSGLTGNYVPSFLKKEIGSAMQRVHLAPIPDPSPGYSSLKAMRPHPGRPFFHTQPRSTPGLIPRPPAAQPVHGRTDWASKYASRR

Chain of MARK1 (Q9P0L2 whole entry): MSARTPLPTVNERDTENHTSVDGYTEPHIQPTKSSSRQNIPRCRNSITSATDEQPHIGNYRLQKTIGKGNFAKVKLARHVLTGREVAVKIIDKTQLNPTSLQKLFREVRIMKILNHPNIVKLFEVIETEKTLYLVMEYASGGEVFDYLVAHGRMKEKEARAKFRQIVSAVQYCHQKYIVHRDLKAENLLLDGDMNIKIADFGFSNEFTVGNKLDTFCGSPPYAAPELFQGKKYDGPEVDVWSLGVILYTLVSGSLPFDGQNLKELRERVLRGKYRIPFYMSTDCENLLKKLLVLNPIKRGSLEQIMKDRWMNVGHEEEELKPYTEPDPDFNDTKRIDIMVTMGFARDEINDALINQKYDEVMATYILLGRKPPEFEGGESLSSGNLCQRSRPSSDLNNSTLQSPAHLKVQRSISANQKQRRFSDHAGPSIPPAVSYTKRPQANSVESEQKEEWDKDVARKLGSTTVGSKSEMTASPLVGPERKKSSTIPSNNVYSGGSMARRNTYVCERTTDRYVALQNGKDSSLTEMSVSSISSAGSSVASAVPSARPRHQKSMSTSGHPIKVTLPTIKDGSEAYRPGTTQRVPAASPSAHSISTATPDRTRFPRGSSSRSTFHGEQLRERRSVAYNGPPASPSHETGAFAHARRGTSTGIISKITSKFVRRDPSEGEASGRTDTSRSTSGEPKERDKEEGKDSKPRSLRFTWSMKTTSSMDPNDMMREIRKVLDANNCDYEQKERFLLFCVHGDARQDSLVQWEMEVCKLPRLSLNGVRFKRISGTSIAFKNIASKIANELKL
Chain of CSNK1G2 (P78368 whole entry): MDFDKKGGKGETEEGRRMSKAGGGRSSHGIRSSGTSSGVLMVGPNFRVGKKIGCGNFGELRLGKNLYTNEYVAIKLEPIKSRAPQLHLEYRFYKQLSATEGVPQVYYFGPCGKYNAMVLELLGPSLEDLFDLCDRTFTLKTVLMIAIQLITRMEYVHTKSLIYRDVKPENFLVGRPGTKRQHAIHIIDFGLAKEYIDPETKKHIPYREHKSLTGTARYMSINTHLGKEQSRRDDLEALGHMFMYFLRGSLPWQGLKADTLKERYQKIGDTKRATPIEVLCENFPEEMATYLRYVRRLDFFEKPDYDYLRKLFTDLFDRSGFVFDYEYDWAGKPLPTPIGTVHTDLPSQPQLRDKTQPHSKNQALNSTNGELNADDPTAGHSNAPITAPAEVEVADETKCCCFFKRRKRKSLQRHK
Chain of PIK3CA(C420R) (P42336 whole entry C420R): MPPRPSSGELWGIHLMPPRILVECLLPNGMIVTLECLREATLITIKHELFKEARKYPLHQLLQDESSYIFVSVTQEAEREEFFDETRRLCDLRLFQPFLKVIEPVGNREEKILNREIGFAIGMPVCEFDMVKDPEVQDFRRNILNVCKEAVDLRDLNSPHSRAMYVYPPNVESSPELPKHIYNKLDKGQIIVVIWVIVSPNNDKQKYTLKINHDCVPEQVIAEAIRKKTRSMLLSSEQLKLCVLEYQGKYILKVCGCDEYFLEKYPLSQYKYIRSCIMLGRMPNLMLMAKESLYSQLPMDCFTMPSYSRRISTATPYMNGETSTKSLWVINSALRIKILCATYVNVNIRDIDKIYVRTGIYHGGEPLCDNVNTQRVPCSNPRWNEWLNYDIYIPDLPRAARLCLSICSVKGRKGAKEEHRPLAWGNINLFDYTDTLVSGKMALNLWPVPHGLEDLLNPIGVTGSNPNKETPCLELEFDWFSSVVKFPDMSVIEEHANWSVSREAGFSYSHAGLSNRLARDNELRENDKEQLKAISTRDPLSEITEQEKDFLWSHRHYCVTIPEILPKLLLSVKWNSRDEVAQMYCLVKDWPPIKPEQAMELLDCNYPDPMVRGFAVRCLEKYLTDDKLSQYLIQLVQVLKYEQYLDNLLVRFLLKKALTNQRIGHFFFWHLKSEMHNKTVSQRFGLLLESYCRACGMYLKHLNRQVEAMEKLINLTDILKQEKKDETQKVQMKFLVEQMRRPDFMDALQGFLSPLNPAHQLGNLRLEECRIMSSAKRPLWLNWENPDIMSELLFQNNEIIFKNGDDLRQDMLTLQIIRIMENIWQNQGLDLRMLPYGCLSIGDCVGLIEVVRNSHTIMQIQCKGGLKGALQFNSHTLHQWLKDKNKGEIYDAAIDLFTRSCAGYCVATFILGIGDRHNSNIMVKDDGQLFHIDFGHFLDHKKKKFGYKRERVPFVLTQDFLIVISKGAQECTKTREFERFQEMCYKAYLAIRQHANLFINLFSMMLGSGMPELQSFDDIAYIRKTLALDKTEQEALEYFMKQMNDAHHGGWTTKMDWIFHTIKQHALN
T9 sequence (Q16620 whole entry): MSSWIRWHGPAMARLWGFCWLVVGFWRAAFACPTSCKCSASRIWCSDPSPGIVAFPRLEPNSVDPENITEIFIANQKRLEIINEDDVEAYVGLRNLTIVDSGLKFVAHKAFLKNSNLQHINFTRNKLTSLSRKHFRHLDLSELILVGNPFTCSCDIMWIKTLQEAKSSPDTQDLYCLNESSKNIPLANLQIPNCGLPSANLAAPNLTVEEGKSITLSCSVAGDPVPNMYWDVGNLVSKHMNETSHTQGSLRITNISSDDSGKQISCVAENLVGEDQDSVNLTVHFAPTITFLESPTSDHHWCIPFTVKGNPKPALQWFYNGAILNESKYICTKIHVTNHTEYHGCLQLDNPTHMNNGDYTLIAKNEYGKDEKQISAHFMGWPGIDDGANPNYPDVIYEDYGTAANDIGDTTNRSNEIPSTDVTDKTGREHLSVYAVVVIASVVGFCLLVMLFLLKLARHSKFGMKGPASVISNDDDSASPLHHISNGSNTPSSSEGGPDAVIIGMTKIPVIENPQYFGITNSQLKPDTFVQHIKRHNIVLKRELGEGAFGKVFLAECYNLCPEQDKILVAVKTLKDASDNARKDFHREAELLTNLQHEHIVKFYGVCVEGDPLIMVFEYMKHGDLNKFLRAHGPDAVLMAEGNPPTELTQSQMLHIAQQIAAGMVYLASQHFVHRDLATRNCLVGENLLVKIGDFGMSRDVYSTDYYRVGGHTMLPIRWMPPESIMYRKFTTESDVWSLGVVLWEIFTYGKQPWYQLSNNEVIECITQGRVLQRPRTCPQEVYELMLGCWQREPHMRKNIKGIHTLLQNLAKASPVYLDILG
Chain of HIPK2 (Q9H2X6 whole entry): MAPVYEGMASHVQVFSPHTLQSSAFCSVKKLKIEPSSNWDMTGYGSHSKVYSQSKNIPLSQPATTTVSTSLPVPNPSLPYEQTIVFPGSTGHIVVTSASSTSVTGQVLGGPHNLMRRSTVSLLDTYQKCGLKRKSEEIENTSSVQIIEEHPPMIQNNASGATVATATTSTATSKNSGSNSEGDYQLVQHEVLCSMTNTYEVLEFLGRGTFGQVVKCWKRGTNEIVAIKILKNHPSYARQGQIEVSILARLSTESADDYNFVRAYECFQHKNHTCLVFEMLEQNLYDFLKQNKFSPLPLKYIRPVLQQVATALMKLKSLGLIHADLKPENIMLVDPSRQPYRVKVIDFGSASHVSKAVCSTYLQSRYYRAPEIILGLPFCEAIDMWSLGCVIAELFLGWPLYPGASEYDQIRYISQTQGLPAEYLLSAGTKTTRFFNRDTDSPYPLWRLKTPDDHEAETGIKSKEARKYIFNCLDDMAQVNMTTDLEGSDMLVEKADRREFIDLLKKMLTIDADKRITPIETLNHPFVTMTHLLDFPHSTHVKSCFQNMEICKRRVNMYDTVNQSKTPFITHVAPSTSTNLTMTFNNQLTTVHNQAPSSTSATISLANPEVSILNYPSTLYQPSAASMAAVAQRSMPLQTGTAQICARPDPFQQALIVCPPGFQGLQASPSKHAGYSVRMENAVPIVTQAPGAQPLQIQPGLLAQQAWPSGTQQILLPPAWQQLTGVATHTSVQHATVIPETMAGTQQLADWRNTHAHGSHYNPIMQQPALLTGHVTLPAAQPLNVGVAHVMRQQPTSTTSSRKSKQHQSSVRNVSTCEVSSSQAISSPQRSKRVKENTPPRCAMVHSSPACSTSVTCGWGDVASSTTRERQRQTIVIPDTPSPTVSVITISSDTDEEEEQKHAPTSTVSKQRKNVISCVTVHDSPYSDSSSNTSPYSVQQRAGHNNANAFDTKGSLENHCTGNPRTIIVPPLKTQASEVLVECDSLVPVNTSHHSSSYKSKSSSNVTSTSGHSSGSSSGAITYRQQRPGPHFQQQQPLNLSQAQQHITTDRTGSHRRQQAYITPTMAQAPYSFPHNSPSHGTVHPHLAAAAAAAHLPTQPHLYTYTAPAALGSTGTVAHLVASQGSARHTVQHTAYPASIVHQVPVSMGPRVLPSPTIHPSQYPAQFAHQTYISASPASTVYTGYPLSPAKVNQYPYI

COc1ccc(-c2cnccc2-c2cnc(NC(=O)C(C)C)s2)c(C(F)(F)F)c1 [CRT0105446, N-{5-[3-(4-Methoxy-2-trifluoromethyl-phenyl)-pyridin-4-yl]-hiazol-2-yl}-isobutyramide]
remaining binding at 10 µM (SRPK2): 93% | remaining binding at 10 µM (BRAF): 79% | remaining binding at 10 µM (HIPK2): 92% | remaining binding at 10 µM (BRAF(V600E)): 64% | remaining binding at 10 µM (MST2): 100% | remaining binding at 10 µM (S6K1): 78% | remaining binding at 10 µM (EGFR(L858R)): 76% | remaining binding at 10 µM (MLCK): 90% | remaining binding at 10 µM [1]: 89% | remaining binding at 10 µM (PRKR): 81% | remaining binding at 10 µM (SBK1): 100% | remaining binding at 10 µM (PIK3CA(C420R)): 100% | remaining binding at 10 µM (ROCK1): 86% | remaining binding at 10 µM (MARK1): 87% | remaining binding at 10 µM (CDK11): 34% | remaining binding at 10 µM (CSNK1G2): 55% | remaining binding at 10 µM (MLK1): 86% | remaining binding at 10 µM (GRK7): 58% | remaining binding at 10 µM (TIE1): 87% | remaining binding at 10 µM [2]: 92% | remaining binding at 10 µM (EPHB1): 88% | remaining binding at 10 µM (TRKB): 99% | remaining binding at 10 µM (ICK): 18%

Cc1ccc(-c2cnccc2-c2cnc(Nc3ccc(O)cc3)s2)c(Cl)c1 [CRT0105950, 4-{5-[3-(2-Chloro-4-methyl-phenyl)-pyridin-4-yl]-thiazol-2-ylamino}-phenol]
remaining binding at 10 µM (SRPK2): 83% | remaining binding at 10 µM (BRAF): 93% | remaining binding at 10 µM (HIPK2): 55% | remaining binding at 10 µM (BRAF(V600E)): 83% | remaining binding at 10 µM (MST2): 0.7% | remaining binding at 10 µM (S6K1): 41% | remaining binding at 10 µM (EGFR(L858R)): 69% | remaining binding at 10 µM (MLCK): 14% | remaining binding at 10 µM [1]: 67% | remaining binding at 10 µM (PRKR): 53% | remaining binding at 10 µM (SBK1): 79% | remaining binding at 10 µM (PIK3CA(C420R)): 88% | remaining binding at 10 µM (ROCK1): 79% | remaining binding at 10 µM (MARK1): 5.8% | remaining binding at 10 µM (CDK11): 2.3% | remaining binding at 10 µM (CSNK1G2): 30% | remaining binding at 10 µM (MLK1): 13% | remaining binding at 10 µM (GRK7): 16% | remaining binding at 10 µM (TIE1): 16% | remaining binding at 10 µM [2]: 86% | remaining binding at 10 µM (EPHB1): 80% | remaining binding at 10 µM (TRKB): 6.4% | remaining binding at 10 µM (ICK): 19%
